Measured values from US20210330611A1, “THERAPY FOR NEUROLOGICAL DISEASES/DISORDERS” (priority 2020, published 2021).
Counter-ions that a name gives are not always drawn. Like-named read-outs stand apart in the source and are kept apart here.

Experiments:
[1] = tested on: fibrin-induced microglia activation; experiment: Image-based assay of fibrin-induced microglia activation (HTS and dose response); type: cell-based, rat; conditions: for inhibition at 10 µM: Rattus norvegicus, Microglia, read-out: Fibrin % inhibition
[2] = tested on: LPS-induced microglia activation; experiment: Image-based assay of LPS-induced microglia activation (HTS and dose response); type: cell-based, rat
[3] = tested on: fibrin- and LPS-induced microglia activation; experiment: cells; type: cell-based, rat
[4] = tested on: primary rat microglia;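 for Fibrin % cell toxicity: share of dead cells sized under 150 µm2 at 10 µM in fibrin-stimulated microglia HTS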
[5] = tested on: primary rat microglia; remark: listed apart in the source;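 for Fibrin % cell toxicity: share of dead cells sized under 150 µm2 at 10 µM in fibrin-stimulated microglia HTS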
[6] = primary microglia HTS, fibrin stimulation, increased cell size (>800 μm^2) as marker of activation
[7] = primary microglia HTS, LPS stimulation; increased cell size (>800 μm^2) as marker of activation
[8] = quadrant by fibrin and LPS inhibition in HTS of 1907 compounds
[9] = primary microglia HTS, fibrin stimulation, activation = cell size >800 μm2
[10] = Rattus norvegicus, Microglia, 48 h, primary microglia HTS, LPS stimulation, activation = cell size >800 μm2; read-out: LPS % inhibition
[11] = primary microglia HTS, fibrin stimulation, compounds at 10 μM
[12] = Rattus norvegicus, Microglia, primary microglia HTS, LPS stimulation, compounds at 10 μM; read-out: LPS % inhibition
[13] = primary HTS, 10 μM, fibrin-stimulated primary microglia
[14] = Rattus norvegicus, Microglia, primary HTS, 10 μM, LPS-stimulated primary microglia; read-out: LPS % inhibition
[15] = Rattus norvegicus, Microglia, read-out: LPS % inhibition
[16] = primary microglia HTS, 10 μM, fibrin-stimulated, cell size >800 μm^2 as marker of activation
[17] = Rattus norvegicus, Microglia, primary microglia HTS, 10 μM, LPS-stimulated, cell size >800 μm^2 as marker of activation; read-out: LPS % inhibition
[18] = HTS of 1907 compounds, quadrant by fibrin and LPS inhibition
[19] = Rattus norvegicus, Microglia, 48 h, primary microglia HTS, LPS stimulation; increased cell size (>800 μm^2) as marker of activation; read-out: LPS % inhibition
[20] = primary microglia HTS, fibrin stimulation, cell size >800 μm2 as marker of activation
[21] = classification by fibrin and LPS inhibition in HTS
[22] = Rattus norvegicus, Microglia, 48 h; read-out: LPS % inhibition

For `CCCCc1nc(Cl)c(CO)n1Cc1ccc(-c2ccccc2-c2nnn[nH]2)cc1` [Losartan, Losartan Potassium], the Fibrin % inhibition [1, 6] was −3%, the LPS % inhibition [2, 7] was 19% and the “Quadrant (FIG. 5b)” value [3, 8] was “Q4”. For the same compound, the “Fibrin % cell toxicity” value [4] was 1% and the “LPS % cell toxicity” value [5] was 1%.
With `N[C@@H](Cc1ccc(O)c(O)c1)C(=O)O` [Levodopa] the inhibition at 10 µM [1, 9] was 17%, the inhibition at 10 µM [2, 10] was -5% and the “Quadrant (FIG. 5b)” value [3, 8] was “Q4”. The “Fibrin % cell toxicity” value ([4]; rat) was 1% and the “LPS % cell toxicity” value ([5]; rat) was 0%.
For `Nc1ccn([C@@H]2O[C@H](CO)[C@@H](O)[C@@H]2O)c(=O)n1` [Cytarabine], the inhibition at 10 µM [1, 11] was -19%, the inhibition at 10 µM [2, 12] was 14% and the “Quadrant (FIG. 5b)” value ([3]; classification by fibrin and LPS inhibition, HTS at 10 μM) was “Q4”. The “Fibrin % cell toxicity” value ([4]; rat) was 0% and the “LPS % cell toxicity” value ([5]; rat) was 0%.
For `O=C(OCc1ccccc1)c1ccccc1` [Benzyl Benzoate], the inhibition at 10 µM [1, 13] was 35%, the inhibition at 10 µM [2, 14] was 32% and the “Quadrant (FIG. 5b)” value ([3]; primary HTS, 10 μM) was “Q4”. For the same compound, the “Fibrin % cell toxicity” value ([4]; rat) was 1% and the “LPS % cell toxicity” value ([5]; rat) was 1%.
With `C[N+](C)(C)CCO` [Choline] the inhibition at 10 µM [1] was 0%, the inhibition at 10 µM [2, 15] was 12% and the “Quadrant (FIG. 5b)” value [3] was “Q4”. For the same compound, the “Fibrin % cell toxicity” value ([4]; rat) was 0% and the “LPS % cell toxicity” value ([5]; rat) was 0%.
With `CCCC(CCC)C(=O)O` [Valproic Acid] the inhibition at 10 µM [1, 16] was -28%, the inhibition at 10 µM [2, 17] was 27% and the “Quadrant (FIG. 5b)” value [3, 18] was “Q4”. The “Fibrin % cell toxicity” value ([4]; rat) was 0% and the “LPS % cell toxicity” value ([5]; rat) was 0%.
With `COC(C)(C)CCC[C@H](C)C/C=C/C(C)=C/C(=O)OC(C)C` [Methoprene (s)] the Fibrin % inhibition [1, 6] was −9%, the LPS % inhibition [2, 7] was 12% and the “Quadrant (FIG. 5b)” value [3, 8] was “Q4”. The “Fibrin % cell toxicity” value [4] was 1% and the “LPS % cell toxicity” value [5] was 0%.
In the case of `CC(=O)Oc1ccc(C(c2ccc(OC(C)=O)cc2)c2ccccn2)cc1` [Bisacodyl], the inhibition at 10 µM [1, 13] was 10%, the inhibition at 10 µM [2, 14] was 8% and the “Quadrant (FIG. 5b)” value ([3]; primary HTS, 10 μM) was “Q4”. The “Fibrin % cell toxicity” value ([4]; rat) was 0% and the “LPS % cell toxicity” value ([5]; rat) was 0%.
In the case of `CCOC(=O)c1ccc(N)cc1` [Benzocaine], the inhibition at 10 µM [1, 11] was -24%, the inhibition at 10 µM [2, 12] was 7% and the “Quadrant (FIG. 5b)” value ([3]; quadrant by fibrin and LPS inhibition, HTS at 10 μM) was “Q4”. For the same compound, the “Fibrin % cell toxicity” value ([4]; rat) was 1% and the “LPS % cell toxicity” value ([5]; rat) was 0%.
`CC(=O)Nc1ccc(S(=O)(=O)c2ccc(NC(C)=O)cc2)cc1` [Acedapsone] was tested, and the inhibition at 10 µM [1] was 0%, the inhibition at 10 µM [2, 15] was 4% and the “Quadrant (FIG. 5b)” value [3] was “Q4”. The “Fibrin % cell toxicity” value ([4]; rat) was 0% and the “LPS % cell toxicity” value ([5]; rat) was 0%.
With `CNC(=C[N+](=O)[O-])NCCSCc1csc(CN(C)C)n1` [Nizatidine] the inhibition at 10 µM [1, 6] was -18%, the inhibition at 10 µM [2, 19] was 14% and the “Quadrant (FIG. 5b)” value [3, 8] was “Q4”. The “Fibrin % cell toxicity” value ([4]; rat) was 0% and the “LPS % cell toxicity” value ([5]; rat) was 0%.
For `COc1c(N2C[C@@H]3CCCN[C@@H]3C2)c(F)cc2c(=O)c(C(=O)O)cn(C3CC3)c12` [Moxifloxacin Hydrochloride], the inhibition at 10 µM [1, 6] was 7%, the inhibition at 10 µM [2, 19] was 14% and the “Quadrant (FIG. 5b)” value [3, 8] was “Q4”. For the same compound, the “Fibrin % cell toxicity” value ([4]; rat) was 1% and the “LPS % cell toxicity” value ([5]; rat) was 0%.
`O=C(O)CCCc1ccc(N(CCCl)CCCl)cc1` [Chlorambucil] was tested, and the inhibition at 10 µM [1, 13] was 8%, the inhibition at 10 µM [2, 14] was -7% and the “Quadrant (FIG. 5b)” value ([3]; primary HTS, 10 μM) was “Q4”. For the same compound, the “Fibrin % cell toxicity” value ([4]; rat) was 1% and the “LPS % cell toxicity” value ([5]; rat) was 0%.
For `C#CCN(C)CCCOc1ccc(Cl)cc1Cl.Cl`, the Fibrin % inhibition ([1]; 10 µM) was −28%, the LPS % inhibition ([2]; 10 µM) was 6% and the “Quadrant (FIG. 5b)” value [3] was “Q4”. The “Fibrin % cell toxicity” value [4] was 0% and the “LPS % cell toxicity” value [5] was 0%.
With `CCC1=C(C)CN(C(=O)NCCc2ccc(S(=O)(=O)NC(=O)N[C@H]3CC[C@H](C)CC3)cc2)C1=O` [Glimepiride] the inhibition at 10 µM [1, 9] was 0%, the inhibition at 10 µM [2, 10] was 21% and the “Quadrant (FIG. 5b)” value [3, 8] was “Q4”. The “Fibrin % cell toxicity” value ([4]; rat) was 1% and the “LPS % cell toxicity” value ([5]; rat) was 0%.
With `CC1=CC(=O)NS(=O)(=O)O1` [Acesulfame Potassium] the inhibition at 10 µM [1] was -3%, the inhibition at 10 µM [2, 15] was 16% and the “Quadrant (FIG. 5b)” value [3] was “Q4”. The “Fibrin % cell toxicity” value ([4]; rat) was 0% and the “LPS % cell toxicity” value ([5]; rat) was 0%.
In the case of `CC(C)CC(N(C)C)C1(c2ccc(Cl)cc2)CCC1` (stereo not shown) [Sibutramine], the inhibition at 10 µM [1, 20] was -12%, the inhibition at 10 µM ([2]; Rattus norvegicus, Microglia, 48 h, primary microglia HTS, LPS stimulation, cell size >800 μm2 as marker of activation; read-out: LPS % inhibition) was 8% and the “Quadrant (FIG. 5b)” value [3, 21] was “Q4”. For the same compound, the “Fibrin % cell toxicity” value ([4]; rat) was 1% and the “LPS % cell toxicity” value ([5]; rat) was 0%.
For `CC1=C(/C=C/C(C)=C/C=C/C(C)=C/C(=O)O)C(C)(C)CCC1` [Tretinon, Tretinoin], the Fibrin % inhibition [1, 16] was 27%, the LPS % inhibition ([2]; primary microglia HTS, 10 μM, LPS-stimulated, cell size >800 μm^2 as marker of activation) was 34% and the “Quadrant (FIG. 5b)” value [3, 18] was “Q4”. The “Fibrin % cell toxicity” value [4] was 1% and the “LPS % cell toxicity” value [5] was 1%.
In the case of `CC[C@H]1OC(=O)[C@H](C)C(=O)[C@H](C)[C@@H](O[C@@H]2O[C@H](C)C[C@H](N(C)C)[C@H]2O)[C@](C)(OC)C[C@@H](C)C(=O)[C@H](C)[C@H]2N(CCCCn3cnc(-c4cccnc4)c3)C(=O)O[C@]12C` [Telithromycin], the inhibition at 10 µM [1, 16] was 0%, the inhibition at 10 µM [2, 17] was 17% and the “Quadrant (FIG. 5b)” value [3, 18] was “Q4”. The “Fibrin % cell toxicity” value ([4]; rat) was 1% and the “LPS % cell toxicity” value ([5]; rat) was 0%.
With `CC(C)(C)NC[C@H](O)c1ccc(O)c(CO)c1` [Levosalbutamol] the inhibition at 10 µM [1, 9] was -29%, the inhibition at 10 µM [2, 10] was 11% and the “Quadrant (FIG. 5b)” value [3, 8] was “Q4”. The “Fibrin % cell toxicity” value ([4]; rat) was 0% and the “LPS % cell toxicity” value ([5]; rat) was 0%.
For `CN(C)[C@@H]1C(O)=C(C(N)=O)C(=O)[C@@]2(O)C(O)=C3C(=O)c4c(O)cccc4[C@@](C)(O)[C@H]3[C@H](O)[C@@H]12` [Oxytetracycline], the inhibition at 10 µM [1, 6] was 0%, the inhibition at 10 µM [2, 19] was 10% and the “Quadrant (FIG. 5b)” value [3, 8] was “Q4”. For the same compound, the “Fibrin % cell toxicity” value ([4]; rat) was 1% and the “LPS % cell toxicity” value ([5]; rat) was 0%.
`NCCc1ccc(O)c(O)c1` [Dopamine] was tested, and the inhibition at 10 µM [1] was -17%, the inhibition at 10 µM [2, 15] was 9% and the “Quadrant (FIG. 5b)” value [3] was “Q4”. For the same compound, the “Fibrin % cell toxicity” value ([4]; rat) was 1% and the “LPS % cell toxicity” value ([5]; rat) was 0%.
For `NC(=O)c1cccnc1` [Nicotinamide], the inhibition at 10 µM [1] was -8%, the inhibition at 10 µM ([2]; Rattus norvegicus, Microglia, 48 h, read-out: LPS % inhibition) was 16% and the “Quadrant (FIG. 5b)” value [3] was “Q4”. The “Fibrin % cell toxicity” value ([4]; rat) was 1% and the “LPS % cell toxicity” value ([5]; rat) was 0%.
For `COc1c2occc2cc2ccc(=O)oc12` [Methoxsalen], the inhibition at 10 µM [1, 6] was -31%, the inhibition at 10 µM [2, 19] was 14% and the “Quadrant (FIG. 5b)” value [3, 8] was “Q4”. The “Fibrin % cell toxicity” value ([4]; rat) was 0% and the “LPS % cell toxicity” value ([5]; rat) was 0%.
`CC(=O)[C@H]1CC[C@H]2[C@@H]3CCC4=CC(=O)CC[C@]4(C)[C@H]3CC[C@]12C` [Progesterone] was tested, and the inhibition at 10 µM [1, 20] was 36%, the inhibition at 10 µM [2, 22] was 36% and the “Quadrant (FIG. 5b)” value [3, 21] was “Q4”. The “Fibrin % cell toxicity” value ([4]; rat) was 1% and the “LPS % cell toxicity” value ([5]; rat) was 0%.
In the case of `CO/N=C(\C(=O)N[C@@H]1C(=O)N2C(C(=O)O)=C(COC(N)=O)CS[C@H]12)c1ccco1` [Cefuroxime Sodium], the Fibrin % inhibition [1, 13] was −12%, the LPS % inhibition ([2]; primary HTS, 10 μM, LPS-stimulated primary microglia) was 19% and the “Quadrant (FIG. 5b)” value ([3]; primary HTS, 10 μM) was “Q4”. For the same compound, the “Fibrin % cell toxicity” value ([4]; rat) was 1% and the “LPS % cell toxicity” value ([5]; rat) was 1%.
For `CC(C)(C)NCC(O)c1ccc(O)c(CO)c1` (stereo not shown) [Salbutamol], the inhibition at 10 µM [1, 20] was 25%, the inhibition at 10 µM [2, 22] was 25% and the “Quadrant (FIG. 5b)” value [3, 21] was “Q4”. For the same compound, the “Fibrin % cell toxicity” value ([4]; rat) was 1% and the “LPS % cell toxicity” value ([5]; rat) was 0%.
`CN(C)CCC(c1ccc(Cl)cc1)c1ccccn1` (stereo not shown) [Chlorphenamine] was tested, and the inhibition at 10 µM [1, 13] was 0%, the inhibition at 10 µM [2, 14] was 13% and the “Quadrant (FIG. 5b)” value [3] was “Q4”. The “Fibrin % cell toxicity” value ([4]; rat) was 1% and the “LPS % cell toxicity” value ([5]; rat) was 0%.
In the case of `CC(C)(O)c1ccccc1CC[C@@H](SCC1(CC(=O)O)CC1)c1cccc(/C=C/c2ccc3ccc(Cl)cc3n2)c1` [Montelukast Sodium], the Fibrin % inhibition [1] was 21%, the LPS % inhibition [2] was 16% and the “Quadrant (FIG. 5b)” value [3] was “Q4”. The “Fibrin % cell toxicity” value ([4]; rat) was 1% and the “LPS % cell toxicity” value ([5]; rat) was 0%.
